Measurements: patent US20210115104A1, “AMYLIN ANALOGUES” (Zealand Pharma A/S, priority 2015, published 2021)
*1 amine or outer side, *2 acyl side, *3 side chain or, on linkers, in order; H or OH if unused. Where a SMILES comes first, the peptide text is derived from it. Bridges are numbered along the chain shown (N, C = ends). [ ]: non-standard residue; d: D form. The star is where a group is joined. C20 diacid = O=C(O)CCCCCCCCCCCCCCCCCCC(=O)*; γGlu = O=C(O)[C@H](CCC(=O)[*:2])N[*:1]; Hyp = O=C(O)[C@@H]1C[C@@H](O)CN1; NMeI = CC[C@H](C)[C@H](NC)C(=O)O; Sar = CNCC(=O)O

How the values were obtained:
[1] = Assessment of physical stability (Thioflavin T fibrillation); type: physicochemical; set-up: key: FND = fibrillation not detected; FD = fibrillation detected; details: 1 mg/ml, 40° C., ThT; for Fibrillation pH 4.0 (Ac): 50 mM acetate buffer pH 4.0, 96 hours; for Fibrillation pH 7.0 (His): 50 mM histidine buffer pH 7.0, 96 hours; for Fibrillation pH 7.0 (Phos.): 50 mM phosphate buffer pH 7.0, 96 hours
Procedure, shortened: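 Fibrillation lag-time, in hours, taken where regressions of the initial stable phase and the growth phase intersect. ThT (40 μM) fluorescence monitored at 40 °C for 96 h, 10-min reads each preceded by 300 s mixing. Peptide at 1 mg/ml in 50 mM buffers: phosphate or histidine pH 7.0, acetate pH 4.0.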

[2] = molecular target: T1, human calcitonin receptor (hCTR2) (Homo sapiens, UniProt P30988); experiment: hCTR2 cAMP assay (AlphaScreen) in COS7 cells; type: cell-based; details: cAMP induction, COS7 cells expressing hCTR2; Table 1; read-out: hCTR2 EC50
T1 construct: expressed in transfected cells
T1 sequence (P30988 25-474): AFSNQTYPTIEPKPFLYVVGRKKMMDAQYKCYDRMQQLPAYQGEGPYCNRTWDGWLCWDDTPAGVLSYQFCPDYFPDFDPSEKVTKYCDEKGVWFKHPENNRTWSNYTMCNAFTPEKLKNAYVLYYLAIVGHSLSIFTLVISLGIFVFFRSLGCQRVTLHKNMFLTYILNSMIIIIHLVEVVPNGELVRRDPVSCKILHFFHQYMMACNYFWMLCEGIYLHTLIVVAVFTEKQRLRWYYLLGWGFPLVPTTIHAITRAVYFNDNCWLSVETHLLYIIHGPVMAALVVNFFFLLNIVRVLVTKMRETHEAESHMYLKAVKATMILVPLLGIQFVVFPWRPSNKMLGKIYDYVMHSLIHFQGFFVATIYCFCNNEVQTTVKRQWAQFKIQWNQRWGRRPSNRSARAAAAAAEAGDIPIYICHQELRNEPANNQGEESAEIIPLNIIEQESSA
Text: The cell line COS7, originating from African Green Monkey kidney fibroblast cells, was used for establishment of the stable cell lines described below. The COS7 cellular background was used due to it being RAMP naïve, and as such it provides the best available system for testing of the monomeric hCTR and different heterodimeric amylin receptor subtypes functionally generated by introduction of the individual RAMPs.
A cell line expressing the human calcitonin receptor (hCTR2) was generated in the COS7 cellular background as stable clones. In brief, hCTR2 (GI: 4502547) was amplified by PCR using primers encoding terminal restriction sites for subcloning. The 5′-end primers additionally encoded a near Kozak consensus sequence to ensure efficient translation. The fidelity of the DNA encoding the receptor was confirmed by DNA sequencing. The PCR products encoding the receptor were subcloned into a mammalian expression vector containing a neomycin (G418) resistance marker. The mammalian expression vector encoding the receptor was transfected into COS7 cells by a standard liposome transfection method. 48 hours post-transfection, cells were seeded for limited dilution cloning and selected with 1 mg/ml G418 in the culture medium. After 3 weeks, surviving colonies of hCTR2-expressing cells were picked, propagated and tested in the amylin efficacy assay as described in Example 3 below. One hCTR2-expressing clone was chosen for compound profiling.
In vitro activity of test peptides at the hCTR2 and hAMYR3 receptors was assessed by measuring the induction of cAMP following stimulation of the receptor using the AlphaScreen® cAMP Assay kit from Perkin-Elmer.
Briefly, COS7 cells expressing hCTR2 (see Example 2, above) were seeded at 30-40,000 cells per well in 96-well microtiter plates coated with 0.01% poly-L-lysine, and grown for 1 day in culture in 100 μl growth medium [DMEM, 10% FCS, Penicillin (100 IU/ml), Streptomycin (100 μg/ml)]. On the day of analysis, growth medium was removed and the cells were washed once with 200 μl Tyrode buffer [Tyrode's Salts (9.6 g/I), 10 mM HEPES, pH 7.4]. Cells were incubated in 100 μl Tyrode buffer containing increasing concentrations of test peptides, 100 µM IBMX and 0.1% casein for 15 min at 37° C. The reaction was stopped by carefully decanting off the compound/buffer medium and replacing it with lysis/detection buffer (80 μl 0.1% w/v BSA, 5 mM HEPES, 0.3% v/v Tween-20 in deionized water). After incubation at room temperature for 10 min., the cAMP content of the resulting cell lysate was estimated according to the AlphaScreen® cAMP Assay manufacturer's instructions. EC50 values were estimated by computer-aided curve fitting using the 4-parameter logistic (4PL) non-linear model.

[3] = Assessment of chemical stability (RP-HPLC normalized purity); type: physicochemical; details: 7 days, 40° C., Table 1; for Normalized purity after 7 days, 40° C., pH 4: pH 4, 0.2 mg/ml; for Normalized purity after 7 days, 40° C., pH 6: pH 6, 0.2 mg/ml; for Normalized purity after 7 days, 40° C., pH 7.5: pH 7.5, 0.2 mg/ml; for Normalized purity after 7 days, 40° C., pH 9: pH 9, 0.2 mg/ml
Description: Samples of each test peptide were dissolved in MilliQ™ water, and the pH of the solution was adjusted to pH 4, pH 6, pH 7.5 or pH 9, respectively, using either HCl or NaOH. The final peptide concentration was 0.2 mg/ml. Samples were placed in glass vials and incubated at 40° C. The samples were analyzed by RP-HPLC on a C8 column with gradient elution using an ammonium formate/water eluent system, or on a C18 column with gradient elution using a trifluoroacetic acid/water eluent system. The area-percentage (area-%) of the main peak after incubation time T=t (relative to time T=0) was determined by UV spectroscopy at 220 nm.
The purity was first determined as follows:
Purity(area-%)=(area of main peak/total area of all peaks)×100.
The purity was then normalized between time points by setting purity at time 0 (T=0) to 100 for each pH value for a given peptide, as follows:
Normalised area-% at time t (T=t)=[area-%(T=t)/area-%(T=0)]×100.
The normalized purity values in Table 1 were determined after 7 days of incubation.
The chemical stability assessment described in Example 6 was repeated for four pairs of compounds, each differing only by the presence or absence of an Asn-Asn (N—N) doublet at positions 21 and 22.

| SMILES | Fibrillation pH 4.0 (Ac) [1] | Fibrillation pH 7.0 (His) [1] | Fibrillation pH 7.0 (Phos.) [1] | EC50 [2] | Normalized purity after 7 days, 40° C., pH 4 [3] | Normalized purity after 7 days, 40° C., pH 6 [3] | Normalized purity after 7 days, 40° C., pH 7.5 [3] | Normalized purity after 7 days, 40° C., pH 9 [3] |
| --- | --- | --- | --- | --- | --- | --- | --- | --- |
| CC[C@H](C)[C@@H](C(=O)N[C@@H](CC(C)C)C(=O)N[C@@H](CO)C(=O)N[C@@H](CO)C(=O)N[C@H](C(=O)N[C@@H](CCC(=O)O)C(=O)N[C@H](C(=O)NCC(=O)N[C@@H](CO)C(=O)N[C@@H](CC(N)=O)C(=O)N[C@H](C(=O)N1CCC[C@H]1C(N)=O)[C@@H](C)O)C(C)C)[C@@H](C)O)N(C)C(=O)[C@H](C)NC(=O)CN(C)C(=O)[C@H](Cc1ccccc1)NC(=O)[C@H](CO)NC(=O)[C@H](CO)NC(=O)[C@H](CCCNC(=N)N)NC(=O)[C@H](Cc1c[nH]cn1)NC(=O)[C@H](CC(C)C)NC(=O)[C@H](Cc1ccccc1)NC(=O)[C@H](Cc1c[nH]cn1)NC(=O)[C@H](C)NC(=O)[C@H](CC(C)C)NC(=O)[C@H](CCCNC(=N)N)NC(=O)[C@H](CCC(N)=O)NC(=O)[C@@H](NC(=O)[C@H](C)NC(=O)[C@@H]1CSSC[C@H](NC(=O)[C@H](CCCNC(=N)N)NC(=O)CC[C@H](NC(=O)CCCCCCCCCCCCCCCCCCC(=O)O)C(=O)O)C(=O)N[C@@H](CC(N)=O)C(=O)N[C@@H]([C@@H](C)O)C(=O)N[C@@H](C)C(=O)N[C@@H]([C@@H](C)O)C(=O)N1)[C@@H](C)O [Compound 16, [19CD]-isoGlu-R-C( )-NTAT-C( )-ATQRLAHFLHRSSF-Gly(Me)-A-Ile(Me)-LSSTEVGSNTP-NH2] ({C20 diacid-γGlu}-RCNTATCATQRLAHFLHRSSF[Sar]A[NMeI]LSSTEVGSNTP-NH2; disulfide 2-7) | FD | FD | FND | 0.073 nM | A (A = >90%) | A (A = >90%) | A (A = >90%) | B (B = 70-90%) |
| CC[C@H](C)[C@@H](C(=O)N[C@@H](CC(C)C)C(=O)N[C@@H](CO)C(=O)N[C@@H](CO)C(=O)N[C@H](C(=O)N[C@@H](CCC(=O)O)C(=O)N[C@H](C(=O)NCC(=O)N[C@@H](CO)C(=O)N[C@@H](CC(N)=O)C(=O)N[C@H](C(=O)N1C[C@H](O)C[C@H]1C(N)=O)[C@@H](C)O)C(C)C)[C@@H](C)O)N(C)C(=O)[C@H](C)NC(=O)CN(C)C(=O)[C@H](Cc1ccccc1)NC(=O)[C@H](CO)NC(=O)[C@H](CO)NC(=O)[C@H](CCCNC(=N)N)NC(=O)[C@H](CCC(N)=O)NC(=O)[C@H](CC(C)C)NC(=O)[C@H](Cc1ccccc1)NC(=O)[C@H](Cc1c[nH]cn1)NC(=O)[C@H](C)NC(=O)[C@H](CC(C)C)NC(=O)[C@H](CCCNC(=N)N)NC(=O)[C@H](CCC(N)=O)NC(=O)[C@@H](NC(=O)[C@H](C)NC(=O)[C@@H]1CSSC[C@H](NC(=O)[C@H](CCCNC(=N)N)NC(=O)CC[C@H](NC(=O)CCCCCCCCCCCCCCCCCCC(=O)O)C(=O)O)C(=O)N[C@@H](CC(N)=O)C(=O)N[C@@H]([C@@H](C)O)C(=O)N[C@@H](C)C(=O)N[C@@H]([C@@H](C)O)C(=O)N1)[C@@H](C)O [Compound 58, [19CD]-isoGlu-R-C( )-NTAT-C( )-ATQRLAHFLQRSSF-Gly(Me)-A-Ile(Me)-LSSTEVGSNT-Hyp-NH2] ({C20 diacid-γGlu}-RCNTATCATQRLAHFLQRSSF[Sar]A[NMeI]LSSTEVGSNT[Hyp]-NH2; disulfide 2-7) | FND | FD | FND | 0.05 nM | A (A = >90%) | A (A = >90%) | B (B = 70-90%) | B (B = 70-90%) |
| CC[C@H](C)[C@@H](C(=O)N[C@@H](CC(C)C)C(=O)N[C@@H](CO)C(=O)N[C@@H](CO)C(=O)N[C@H](C(=O)N[C@@H](CCC(=O)O)C(=O)N[C@H](C(=O)NCC(=O)N[C@@H](CO)C(=O)N[C@@H](CC(N)=O)C(=O)N[C@H](C(=O)N1C[C@H](O)C[C@H]1C(N)=O)[C@@H](C)O)C(C)C)[C@@H](C)O)N(C)C(=O)[C@H](C)NC(=O)CN(C)C(=O)[C@H](Cc1ccccc1)NC(=O)[C@H](CCCNC(=N)N)NC(=O)[C@H](CCC(N)=O)NC(=O)[C@H](CC(C)C)NC(=O)[C@H](Cc1ccccc1)NC(=O)[C@H](Cc1c[nH]cn1)NC(=O)[C@H](C)NC(=O)[C@H](CC(C)C)NC(=O)[C@H](CCCNC(=N)N)NC(=O)[C@H](CCC(=O)O)NC(=O)[C@@H](NC(=O)[C@H](C)NC(=O)[C@@H]1CSSC[C@H](NC(=O)[C@H](CCCNC(=N)N)NC(=O)CC[C@H](NC(=O)CCCCCCCCCCCCCCCCCCC(=O)O)C(=O)O)C(=O)NCC(=O)N[C@@H]([C@@H](C)O)C(=O)N[C@@H](C)C(=O)N[C@@H]([C@@H](C)O)C(=O)N1)[C@@H](C)O [Compound 77, [19CD]-isoGlu-R-C( )-GTAT-C( )-ATERLAHFLQRF-Gly(Me)-A-Ile(Me)-LSSTEVGSNT-Hyp-NH2] ({C20 diacid-γGlu}-RCGTATCATERLAHFLQRF[Sar]A[NMeI]LSSTEVGSNT[Hyp]-NH2; disulfide 2-7) | FND | FND | FND | 0.16 nM | A (A = >90%) | A (A = >90%) | B (B = 70-90%) | B (B = 70-90%) |
